In ChEMBL document CHEMBL3885881, “DrugMatrix”:

Organism: Rattus norvegicus
Test: DrugMatrix - Regimen: Daily Repeat
Assay type: toxicity, organism-based, Sprague-Dawley
Parameters: regimen Daily Repeat, gender Male, age 6-8 weeks
Conditions: in vivo, route none, vehicle 100 % UNTREATED
[1] = 0 mg/kg, 120 h, tissue Blood, dose level Control, time 5 day
[2] = 0 mg/kg, 120 h, tissue Plasma, dose level Control, time 5 day
[3] = 0 mg/kg, […], tissue Blood, dose level Control, time 14 day
[4] = 0 mg/kg, […], tissue Plasma, dose level Control, time 14 day
[5] = 50 mg/kg, 120 h, tissue Blood, dose level Low, time 5 day
[6] = 50 mg/kg, 120 h, tissue Plasma, dose level Low, time 5 day
[7] = 50 mg/kg, […], tissue Blood, dose level Low, time 14 day
[8] = 50 mg/kg, […], tissue Plasma, dose level Low, time 14 day
[9] = 60 mg/kg, 120 h, tissue Blood, dose level M1, time 5 day

Substance: Diet_Restriction
- ABSOLUTE BASOPHIL [1]: 0 CELLS/uL
- ABSOLUTE EOSINOPHIL [1]: 42.67 CELLS/uL
- ABSOLUTE LYMPHOCYTE [1]: 11593.33 CELLS/uL
- ABSOLUTE MONOCYTE [1]: 174.33 CELLS/uL
- ABSOLUTE SEGMENTED NEUTROPHIL [1]: 1356.33 CELLS/uL
- BASOPHIL [1]: 0%
- EOSINOPHIL [1]: 0.33%
- ERYTHROCYTE COUNT [1]: 5.67 x10E6/uL
- HEMATOCRIT [1]: 43.37%
- HEMOGLOBIN [1]: 12.33 G/DL
- LEUKOCYTE COUNT [1]: 13.17 x10E3/uL
- LYMPHOCYTE [1]: 88%
- MEAN CORPUSCULAR HEMOGLOBIN [1]: 21.77 pg
- MEAN CORPUSCULAR HEMOGLOBIN CONCENTRATION [1]: 36.93 G/DL
- MEAN CORPUSCULAR VOLUME [1]: 58.9 fL
- NUCLEATED RED BLOOD CELLS [1]: 0 /100WBC
- PLATELET COUNT [1]: 942.33 x10E3/uL
- ALANINE AMINOTRANSFERASE [2]: 42.67 u/L
- ALBUMIN [2]: 4.2 G/DL
- ALKALINE PHOSPHATASE [2]: 336.33 u/L
- ASPARTATE AMINOTRANSFERASE [2]: 74 u/L
- BLOOD UREA NITROGEN [2]: 12.67 mg/dL
- CARBON DIOXIDE [2]: 32.33 mmol/L
- CHOLESTEROL [2]: 78.67 mg/dL
- CREATINE PHOSPHOKINASE [2]: 847.33 u/L
- CREATININE [2]: 0.22 mg/dL
- LACTATE DEHYDROGENASE [2]: 139.67 u/L
- POTASSIUM [2]: 6.74 MEQ/L
- TOTAL BILIRUBIN [2]: 0.13 mg/dL
- URIC ACID [2]: 1.3 mg/dL
- ABSOLUTE BASOPHIL [3]: 0 CELLS/uL
- ABSOLUTE EOSINOPHIL [3]: 46.33 CELLS/uL
- ABSOLUTE LYMPHOCYTE [3]: 13977 CELLS/uL
- ABSOLUTE MONOCYTE [3]: 264.67 CELLS/uL
- ABSOLUTE SEGMENTED NEUTROPHIL [3]: 1445.33 CELLS/uL
- BASOPHIL [3]: 0%
- EOSINOPHIL [3]: 0.33%
- ERYTHROCYTE COUNT [3]: 6.27 x10E6/uL
- LEUKOCYTE COUNT [3]: 15.73 x10E3/uL
- LYMPHOCYTE [3]: 89%
- MEAN CORPUSCULAR HEMOGLOBIN [3]: 22.27 pg
- MEAN CORPUSCULAR HEMOGLOBIN CONCENTRATION [3]: 37.13 G/DL
- NEUTROPHIL [3]: 9%
- NUCLEATED RED BLOOD CELLS [3]: 0 /100WBC
- PLATELET COUNT [3]: 923 x10E3/uL
- ALANINE AMINOTRANSFERASE [4]: 48.67 u/L
- ALKALINE PHOSPHATASE [4]: 360 u/L
- ASPARTATE AMINOTRANSFERASE [4]: 67 u/L
- CARBON DIOXIDE [4]: 32 mmol/L
- CHLORIDE [4]: 99 MEQ/L
- CHOLESTEROL [4]: 92.67 mg/dL
- CREATINE PHOSPHOKINASE [4]: 220.67 u/L
- CREATININE [4]: 0.19 mg/dL
- LACTATE DEHYDROGENASE [4]: 88.33 u/L
- LIPASE [4]: 10 u/L
- PHOSPHORUS [4]: 13.07 mg/dL
- POTASSIUM [4]: 6.69 MEQ/L
- TOTAL BILIRUBIN [4]: 0.17 mg/dL
- TOTAL PROTEIN [4]: 6.33 G/DL
- URIC ACID [4]: 1.9 mg/dL
- ABSOLUTE BASOPHIL [5]: 0 CELLS/uL
- ABSOLUTE EOSINOPHIL [5]: 0 CELLS/uL
- ABSOLUTE LYMPHOCYTE [5]: 5557.67 CELLS/uL
- ABSOLUTE MONOCYTE [5]: 33.33 CELLS/uL
- ABSOLUTE SEGMENTED NEUTROPHIL [5]: 409 CELLS/uL
- BASOPHIL [5]: 0%
- EOSINOPHIL [5]: 0%
- ERYTHROCYTE COUNT [5]: 6.2 x10E6/uL
- HEMOGLOBIN [5]: 13.47 G/DL
- LEUKOCYTE COUNT [5]: 6 x10E3/uL
- LYMPHOCYTE [5]: 93%
- MEAN CORPUSCULAR HEMOGLOBIN [5]: 21.73 pg
- MEAN CORPUSCULAR HEMOGLOBIN CONCENTRATION [5]: 37.13 G/DL
- MEAN CORPUSCULAR VOLUME [5]: 58.43 fL
- MONOCYTE [5]: 0.67%
- NEUTROPHIL [5]: 6.33%
- NUCLEATED RED BLOOD CELLS [5]: 0 /100WBC
- PLATELET COUNT [5]: 1004.67 x10E3/uL
- ALBUMIN [6]: 4.4 G/DL
- ALKALINE PHOSPHATASE [6]: 272.67 u/L
- ASPARTATE AMINOTRANSFERASE [6]: 69 u/L
- BLOOD UREA NITROGEN [6]: 10 mg/dL
- CHOLESTEROL [6]: 67.33 mg/dL
- CREATININE [6]: 0.15 mg/dL
- GLUCOSE [6]: 121.33 mg/dL
- LACTATE DEHYDROGENASE [6]: 95.33 u/L
- LIPASE [6]: 10 u/L
- PHOSPHORUS [6]: 10.03 mg/dL
- POTASSIUM [6]: 6.08 MEQ/L
- SODIUM [6]: 146.6 MEQ/L
- TOTAL BILIRUBIN [6]: 0.13 mg/dL
- TOTAL PROTEIN [6]: 6.27 G/DL
- URIC ACID [6]: 1.13 mg/dL
- ABSOLUTE BASOPHIL [7]: 0 CELLS/uL
- ABSOLUTE EOSINOPHIL [7]: 34 CELLS/uL
- ABSOLUTE LYMPHOCYTE [7]: 10004 CELLS/uL
- ABSOLUTE MONOCYTE [7]: 145.67 CELLS/uL
- ABSOLUTE SEGMENTED NEUTROPHIL [7]: 1049.67 CELLS/uL
- BASOPHIL [7]: 0%
- EOSINOPHIL [7]: 0.33%
- ERYTHROCYTE COUNT [7]: 7.11 x10E6/uL
- HEMATOCRIT [7]: 38.27%
- LEUKOCYTE COUNT [7]: 11.23 x10E3/uL
- LYMPHOCYTE [7]: 89.33%
- MEAN CORPUSCULAR HEMOGLOBIN [7]: 19.8 pg
- MEAN CORPUSCULAR HEMOGLOBIN CONCENTRATION [7]: 36.77 G/DL
- MEAN CORPUSCULAR VOLUME [7]: 53.83 fL
- NEUTROPHIL [7]: 9%
- NUCLEATED RED BLOOD CELLS [7]: 0 /100WBC
- PLATELET COUNT [7]: 891.33 x10E3/uL
- ALANINE AMINOTRANSFERASE [8]: 40.33 u/L
- ALBUMIN [8]: 4.2 G/DL
- ALKALINE PHOSPHATASE [8]: 255.67 u/L
- ASPARTATE AMINOTRANSFERASE [8]: 75 u/L
- BLOOD UREA NITROGEN [8]: 15 mg/dL
- CHOLESTEROL [8]: 62.33 mg/dL
- CREATINE PHOSPHOKINASE [8]: 467.33 u/L
- CREATININE [8]: 0.22 mg/dL
- GLUCOSE [8]: 163.67 mg/dL
- LACTATE DEHYDROGENASE [8]: 62.33 u/L
- POTASSIUM [8]: 5.28 MEQ/L
- TOTAL BILIRUBIN [8]: 0.1 mg/dL
- TOTAL PROTEIN [8]: 6.1 G/DL
- URIC ACID [8]: 1.5 mg/dL
- ABSOLUTE BASOPHIL [9]: 0 CELLS/uL
- ABSOLUTE EOSINOPHIL [9]: 49.33 CELLS/uL
- ABSOLUTE LYMPHOCYTE [9]: 3766.67 CELLS/uL
- ABSOLUTE MONOCYTE [9]: 29.33 CELLS/uL
- ABSOLUTE SEGMENTED NEUTROPHIL [9]: 454.67 CELLS/uL
